Test results published in patent publication US20240382401A1, “COMPOSITIONS” (JVS Products Limited, priority 2020, published 2024).

System: tissue engineered human skin model (EpiDerm™)
Assay: In vitro skin irritation test, EpiDerm (EPI-200-SIT), MTT assay
Format: cell-based
Conditions: 60 minutes exposure, relative to negative control, irritant if below 50%
Description: A 24 tissue insert EpiDerm™ skin irritation kit was purchased from MatTek In Vitro Life Science Laboratories, Slovakia (EPI-200-SIT). On receipt of the kit, the tissues were visually assessed for integrity and conditioned by transferring into sterile 6 well plates, adding 0.9 ml medium and incubating for 60 minutes at 37° C., 5% CO2, 95% RH. After 60 minutes, the tissues were removed, placed in fresh medium and further incubated for 18 hours.
To test for irritancy potential, 30 μl of liquid formulation, plus positive and negative control or 25 mg semisolid (gel/moisturiser) were applied to surface of each test tissue insert. After dosing the inserts were incubated for 35 minutes (37° C., 5% CO2, 95% RH). […]
Once extraction was complete, 200 μl samples from each tissue were added to a 96 well plate in duplicate for the MTT assay of cell viability, and 200 μl isopropanol to 4 wells as blanks. The optical density of each well was read using a spectrophotometric plate reader at 570 nm without using a reference filter.
The mean OD (optical density) from the blank wells was subtracted from the OD of each well. The mean OD from each duplicate was then obtained and the individual relative tissue viability for each tissue treated with a test substance (TS), the positive control (PC) and the negative control (NC) calculated according to the following formulas: […]

## CCCCCCCCCCCCOS(=O)(=O)[O-].[Na+] [5% SDS]
  Mean RV % (relative viability): 9.0%
